We go through 15 compounds from patent US5510338A, “Phosphonoalkylquinolin-2-ones as novel antagonists of non-NMDA ionotropic excitatory amino acid receptors” (priority 1994, dated 1996).

One assay concerns kainate receptors. The conditions noted are these: U.S. Pat. No. 4,657,899, Table I on column 13; cited from earlier work.
The test system of a further assay is NMDA. The conditions noted are these: U.S. Pat. No. 4,657,899; cited from earlier work.
The next assay addresses GLU. Description: Inhibition of EAA receptor ligand binding, GLU. Conditions: read-out: Receptor Potency (Ki), GLU.
Assay [1] concerns the target CNQX-labeled non-NMDA receptors. Description: Inhibition of EAA receptor ligand binding, CNQX (CNQX-labeled non-NMDA receptors). The conditions noted are these: for Ki: inhibition of EAA receptor ligand binding, CNQX-labeled non-NMDA receptors, read-out: Receptor Potency (Ki), CNOX; for selectivity for NMDA vs non-NMDA receptors: in words, from Table II data.
The target in assay [2] is T1, Glycine (strychnine insensitive glycine binding) (Rattus norvegicus, UniProt P35439).
T1 construct: from tissue
Description: Strychnine insensitive glycine binding. The conditions noted are these: read-out: Receptor Potency (Ki), Glycine. How it is done:
Binding assays for the displacement of ^3 H!AMPA were performed as described by Murphy et al. (Neurochemical Reseach. 12: 775-781 1987!). KA binding assays were performed as described by London et al (Molecular Pharmacology. 15:492-505 1979!); strychnine insensitive glycine binding was evaluated by the method of Snell et al (European Journal of Pharmacology. 156: 105-110 1988!.

For assay [3], the target named is KA receptors (KA-induced currents in rat brain mRNA-injected Xenopus oocytes). Description: Inhibition of KA-induced currents in rat brain mRNA-injected Xenopus oocytes. In kind it is cell-based. The conditions noted are these: for Potency to inhibit KA-induced currents, Ki: rat brain mRNA-injected Xenopus oocytes, voltage clamped at -60 to -70 mV, IC50 converted to Ki by Cheng-Prusoff equation.
Description: Defolliculated oocytes obtained from Xenopus laevis females were injected with 30-75 ng of poly (A+) mRNA obtained from 21-day old male Sprague-Dawley rats. Oocytes were placed individually in 100 ml of antibiotic-supplemented modified Barthes solution (MBS, containing in mM: NaCl, 88; KCl 1.0; NaHCO3, 2.4 HEPES, 10; MgSO4 0.82; Ca(NO3)2, 0.33) in 96-well sterile plates and cultured for 48-120 hours prior to experimentation. Oocytes were inspected every 24 hours at which time the bathing solution is replaced with fresh MBS.
For electrophysiological studies, oocytes were positioned in a small recording chamber (500 ml) and superfused with antibiotic free MBS supplemented with CaCl2 (final concentration=1.4 mM). Oocytes are impaled with a single glass microelectrode, voltage clamped at -60 to -70 mV, and perfused by gravity feed at a rate of 3-5 ml/min at room temperature. […] Antagonists are coperfused with agonists.
Potencies to inhibit kainic acid-, AMPA- and NMDA/glycine-induced currents are determined from concentration-response curves. IC50 values are converted to Ki values for comparison purposes using the Cheng-Prusoff equation.

Regarding `NC(Cc1ccccc1CCP(=O)(O)O)C(=O)O` (stereo not drawn) [2-amino-3-2-(2-phosphonoethyl)phenyl!propanoic acid], the “binding affinity for kainate receptors (in words)” value (“binding affinity” below) with kainate receptors is on record as “very low binding affinity”. The “NMDA antagonist activity (in words)” value with NMDA is on record as “antagonists of NMDA”.
In the case of `CCC(c1ccccc1CCCP(=O)(O)O)C(N)C(=O)O` (stereo not drawn) [2-amino-3-2-(3-phosphonopropyl) phenyl!pentanoic acid], in the assay with kainate receptors, the “binding affinity” value is “very low binding affinity”. Besides, the “NMDA antagonist activity (in words)” value in the assay on NMDA is on record as “antagonists of NMDA”.
For the compound `NC(Cc1ccccc1CP(=O)(O)O)C(=O)O` (stereo not drawn) [2-amino-3-2-phosphonomethylphenyl!propanoic acid], the “binding affinity” value in the assay on kainate receptors is given as “very low binding affinity”. Moreover, the “NMDA antagonist activity (in words)” value in the assay with NMDA was “antagonists of NMDA”.
Consider `NC(CCCc1ccccc1CP(=O)(O)O)C(=O)O` (stereo not drawn) [2-amino-5-2-phosphonomethylphenyl!pentanoic acid], for which the “binding affinity” value in the assay on kainate receptors is given as “very low binding affinity”. Moreover, the “NMDA antagonist activity (in words)” value with NMDA is recorded as “antagonists of NMDA”.
In the case of `O=c1cc(CCP(=O)(O)O)c2ccc(Cl)cc2[nH]1` [Example 1, 7-Chloro-4-phosphonethylquinolin-2-one], the Ki (usually the equilibrium dissociation constant of an inhibitor or competing ligand from its target) came to 600 µM at GLU, 91 µM in assay [1] and 231 µM in assay [2].
Regarding `O=c1cc(CP(=O)(O)O)c2ccc(Cl)cc2[nH]1` [Example 2, 7-Chloro-4-phosphonomethylquinolin-2-one], the Ki came out at 30 µM on GLU, 59 µM in assay [1] and 10 µM in assay [2]. The “Potency to inhibit KA-induced currents, Ki” value in assay [3] came to 32 µM. The “selectivity for NMDA vs non-NMDA receptors” value in assay [1] is given as “not very selective”.
With `O=c1cc(CP(=O)(O)O)c2c(Cl)cc(Cl)cc2[nH]1` [Example 3, 5,7-Dichloro-4-phosphonomethylquinolin-2-one], the Ki at GLU is over 100 µM; in assay [1], 38 µM; in assay [2], 28 µM. Besides, the “Potency to inhibit KA-induced currents, Ki” value in assay [3] worked out at 18.2 µM. For the same compound, in assay [1], the “selectivity for NMDA vs non-NMDA receptors” value is on record as “quite selective”.
Taken in the same sequence, the figures for `O=c1cc(CP(=O)(O)O)c2ccc(I)cc2[nH]1` [Example 4, 7-Iodo-4-phosphonomethylquinolin-2-one] were 35 µM, 26 µM, 29 µM, 15.6 µM and “not very selective”.
Turning to `O=c1cc(CP(=O)(O)O)c2cc(Cl)c(Cl)cc2[nH]1` [Example 5, 6,7-Dichloro-4-phosphonomethylquinolin-2-one], on GLU, the Ki is over 100 µM. The “Potency to inhibit KA-induced currents, Ki” value in assay [3] stood at 9.6 µM. In assay [1], the “selectivity for NMDA vs non-NMDA receptors” value is listed as “quite selective” and the Ki is 15 µM.
Consider `CCOP(=O)(Cc1cc(=O)[nH]c2cc(Cl)cc(Cl)c12)OCC` [Example 21a, 5,7-Dichloro-4-(diethoxyphosphinyl)methylquinolin-2-one], for which, in assay [3], the “activity in words of related compounds tested” value is “essentially inactive” and the “Potency to inhibit KA-induced currents, Ki” value was determined as 480 µM. Further, in assay [1], the Ki is over 100 µM. The inhibition constant (Ki) in assay [2] was determined as 103 µM.
Take `O=C(O)c1cc(CCP(=O)(O)O)c2ccc(Cl)cc2n1` [Example 22, 2-Carboxy-7-chloro-4-phosphonethylquinoline]: the Ki on GLU was over 100 µM; in assay [1] it was 384 µM; in assay [2] it was over 1000 µM. The “Potency to inhibit KA-induced currents, Ki” value in assay [3] came out at 450 µM.
For the compound `O=C(O)c1cc(CP(=O)(O)O)c2ccc(Cl)cc2n1` [Example 23, 2-Carboxy-7-chloro-4-phosphonomethylquinoline], the “Potency to inhibit KA-induced currents, Ki” value in assay [3] was 129 µM. Also, the values for the Ki in assay [1] and in assay [2] were 64 µM and 68 µM, respectively.
As for `O=c1cc(P(=O)(O)O)c2ccc(Cl)cc2[nH]1` [Example 24, 7-Chloro-4-phosphonoquinolin-2-one], the Ki on GLU was over 300 µM; in assay [2], over 1000 µM. Moreover, the “Potency to inhibit KA-induced currents, Ki” value in assay [3] was over 100 µM.
Consider `O=c1cc(CP(=O)(O)O)c2ccc(Cl)c([N+](=O)[O-])c2[nH]1` [Example 25, 7-Chloro-8-nitro-4-phosphonomethylquinolin-2-one], for which the Ki was over 1000 µM on GLU, 300 µM in assay [1] and over 1000 µM in assay [2].
Take `O=c1cc(CP(=O)(O)O)c2c([N+](=O)[O-])c(Cl)ccc2[nH]1` [Example 26, 6-Chloro-5-nitro-4-phosphonomethylquinolin-2-one]: the Ki (at GLU; in assay [1]; in assay [2]) was over 1000 µM throughout. For the same compound, the “Potency to inhibit KA-induced currents, Ki” value in assay [3] was over 300 µM.
